Assay results published in ChEMBL document CHEMBL4828735, “Discovery of N-((3S,4S)-4-(3,4-Difluorophenyl)piperidin-3-yl)-2-fluoro-4-(1-methyl-1H-pyrazol-5-yl)benzamide (Hu7691), a Potent and Selective Akt Inhibitor That Enables Decrease of Cutaneous Toxicity” (J Med Chem, 2021).
Activity calls are given as the source filed them. No cut-off for these calls is given here.

How the values were obtained:
[1] = molecular target: CYP2C19 (Homo sapiens, UniProt P33261); assay: Inhibition of CYP2C19 (unknown origin) at 100 uM; assay type: ADME
[2] = Toxicity in mouse assessed as death at 250 mg/kg; assay type: organism-based; conditions: in vivo
[3] = Antiproliferative activity against human HPDE6c7 cells assessed as inhibition of cell growth incubated for 72 hrs by SRB method; assay type: cell-based; conditions: HPDE6c7, 72 h
[4] = molecular target: cGMP-dependent protein kinase 2 (Homo sapiens) (UniProt Q13237); assay: Inhibition of PRKG2 (unknown origin) at 0.5 uM
[5] = Toxicity in Sprague-Dawley rat assessed as appearance of scab on back skin at 25 to 75 mg/kg administered daily for 4 weeks; assay type: organism-based; conditions: in vivo, 672 h, dose 25-75 mg/kg
[6] = Drug metabolism in po dosed Sprague-Dawley rat urine assessed as M3 metabolite formation measured upto 72 hrs by UPLC-TOF-MS/MS analysis; assay type: ADME, organism-based; conditions: in vivo
[7] = tested on: A549; assay: Antiproliferative activity against human A549 cells assessed as inhibition of cell growth incubated for 72 hrs by SRB method; assay type: functional, cell-based; conditions: A549, 72 h
[8] = molecular target: Phosphatidylinositol 4,5-bisphosphate 3-kinase catalytic subunit alpha isoform (Homo sapiens, UniProt P42336); assay: Inhibition of PI3Kalpha (unknown origin)
[9] = molecular target: Cyclin-dependent kinase 2 (Homo sapiens, UniProt P24941); assay: Inhibition of CDK2 (unknown origin)
[10] = molecular target: Protein kinase C eta type (Homo sapiens, UniProt P24723); assay: Inhibition of PKCeta (unknown origin)
[11] = species: Homo sapiens; assay: Inhibition of PKG (unknown origin) at 0.5 uM
[12] = Toxicity in Sprague-Dawley rat assessed as effect on thyroid at 25 to 75 mg/kg administered daily for 4 weeks by histopathological analysis; assay type: organism-based; conditions: in vivo, 672 h, dose 25-75 mg/kg
[13] = tested on: U-251; assay: Antiproliferative activity against human U251 cells assessed as inhibition of cell growth incubated for 72 hrs by SRB method; assay type: functional, cell-based; conditions: U-251, 72 h
[14] = Microsomal stability in human liver microsomes assessed as half life at 50 uM preincubated for 5 mins with NADPH followed by compound addition and measured upto 60 mins by LC-MS/MS analysis; assay type: ADME, Microsome
[15] = tested on: 786-0; assay: Antitumor activity against human 786-0 cells xenografted in ig dosed BALB/c nude mouse assessed as tumor growth inhibition administered once daily for 22 days; assay type: functional, organism-based; conditions: dose 12.5-50 mg/kg, time 22.0 day
[16] = molecular target: Tyrosine-protein kinase JAK2 (Homo sapiens, UniProt O60674); assay: Inhibition of JAK2 (unknown origin)
[17] = tested on: KHOS/NP; assay: Antiproliferative activity against human KHOS cells assessed as inhibition of cell growth incubated for 72 hrs by SRB method; assay type: functional, cell-based
[18] = molecular target: hERG (KCNH2) (Homo sapiens, UniProt Q12809); assay: Inhibition of human ERG expressed in HEK293 cells at 3 uM by whole cell patch clamp method relative to control; assay type: cell-based; conditions: HEK293 cells expressing hERG
[19] = molecular target: Mitogen-activated protein kinase 9 (Homo sapiens, UniProt P45984); assay: Inhibition of JNK2 (unknown origin)
[20] = Microsomal stability in mouse liver microsomes assessed as half life at 50 uM preincubated for 5 mins with NADPH followed by compound addition and measured upto 60 mins by LC-MS/MS analysis; assay type: ADME, Microsome
[21] = Microsomal stability in rat liver microsomes assessed as intrinsic clearance at 50 uM preincubated for 5 mins with NADPH followed by compound addition and measured upto 60 mins by LC-MS/MS analysis; assay type: ADME, Microsome; conditions: read-out: CLH
[22] = Toxicity in mouse assessed as weight loss at 150 mg/kg; assay type: organism-based; conditions: in vivo
[23] = tested on: Bel-7402; assay: Antiproliferative activity against human Bel-7402 cells assessed as inhibition of cell growth incubated for 72 hrs by SRB method; assay type: functional, cell-based; conditions: Bel-7402, 72 h
[24] = Tmax in Sprague-Dawley rat at 2 mg/kg, iv measured upto 24 hrs by LC-MS/MS analysis; assay type: ADME, organism-based; conditions: in vivo
[25] = Toxicity in Sprague-Dawley rat assessed as effect on uterus at 25 to 75 mg/kg administered daily for 4 weeks by histopathological analysis; assay type: organism-based; conditions: in vivo, 672 h, dose 25-75 mg/kg
[26] = molecular target: RAC-alpha serine/threonine-protein kinase (Homo sapiens, UniProt P31749); assay: Inhibition of N-terminal GST-tagged human AKT1 (104 to 408 residues) expressed in baculovirus infected Sf21 cells incubated for 1 hr in presence of ATP by mobility shift assay
[27] = Drug metabolism in po dosed Sprague-Dawley rat blood assessed as M1 metabolite formation measured upto 6 hrs by UPLC-TOF-MS/MS analysis; assay type: ADME, organism-based; conditions: in vivo
[28] = Microsomal stability in rat liver microsomes assessed as half life at 50 uM preincubated for 5 mins with NADPH followed by compound addition and measured upto 60 mins by LC-MS/MS analysis; assay type: ADME, Microsome
[29] = molecular target: Cytochrome P450 2C9 (Homo sapiens, UniProt P11712); assay: Inhibition of CYP2C9 (unknown origin); assay type: ADME
[30] = Toxicity in Sprague-Dawley rat assessed as effect on ovaries at 25 to 75 mg/kg administered daily for 4 weeks by histopathological analysis; assay type: organism-based; conditions: in vivo, 672 h, dose 25-75 mg/kg
[31] = Microsomal stability in monkey liver microsomes assessed as half life at 50 uM preincubated for 5 mins with NADPH followed by compound addition and measured upto 60 mins by LC-MS/MS analysis; assay type: ADME, Macaca mulatta, Microsome; conditions: rhesus monkey
[32] = Half life in Beagle dog at 20 mg/kg, ig measured upto 96 hrs by LC-MS/MS analysis; assay type: ADME, organism-based, Canis lupus familiaris; conditions: in vivo, po
[33] = Half life in Sprague-Dawley rat at 15 mg/kg, ig measured upto 72 hrs by LC-MS/MS analysis; assay type: ADME, organism-based; conditions: in vivo, po
[34] = molecular target: Tyrosine-protein kinase ABL1 (Homo sapiens, UniProt P00519); assay: Inhibition of ABL (unknown origin)
[35] = Drug metabolism in po dosed Sprague-Dawley rat urine assessed as M2 metabolite formation measured upto 72 hrs by UPLC-TOF-MS/MS analysis; assay type: ADME, organism-based; conditions: in vivo
[36] = Drug metabolism in po dosed Sprague-Dawley rat feces assessed as M5 metabolite formation measured upto 24 hrs by UPLC-TOF-MS/MS analysis; assay type: ADME, organism-based; conditions: in vivo
[37] = Tmax in Beagle dog at 20 mg/kg, ig measured upto 96 hrs by LC-MS/MS analysis; assay type: ADME, organism-based, Canis lupus familiaris; conditions: in vivo, po
[38] = Toxicity in BALB/c nude mouse xenografted with human 786-0 cells assessed as mortality at 12.5 to 50 mg/kg, ig administered once daily for 22 days; assay type: organism-based; conditions: in vivo, po, 528 h, dose 12.5-50 mg/kg, time 22 day

Protein kinase C eta type, sequence (P24723 whole entry): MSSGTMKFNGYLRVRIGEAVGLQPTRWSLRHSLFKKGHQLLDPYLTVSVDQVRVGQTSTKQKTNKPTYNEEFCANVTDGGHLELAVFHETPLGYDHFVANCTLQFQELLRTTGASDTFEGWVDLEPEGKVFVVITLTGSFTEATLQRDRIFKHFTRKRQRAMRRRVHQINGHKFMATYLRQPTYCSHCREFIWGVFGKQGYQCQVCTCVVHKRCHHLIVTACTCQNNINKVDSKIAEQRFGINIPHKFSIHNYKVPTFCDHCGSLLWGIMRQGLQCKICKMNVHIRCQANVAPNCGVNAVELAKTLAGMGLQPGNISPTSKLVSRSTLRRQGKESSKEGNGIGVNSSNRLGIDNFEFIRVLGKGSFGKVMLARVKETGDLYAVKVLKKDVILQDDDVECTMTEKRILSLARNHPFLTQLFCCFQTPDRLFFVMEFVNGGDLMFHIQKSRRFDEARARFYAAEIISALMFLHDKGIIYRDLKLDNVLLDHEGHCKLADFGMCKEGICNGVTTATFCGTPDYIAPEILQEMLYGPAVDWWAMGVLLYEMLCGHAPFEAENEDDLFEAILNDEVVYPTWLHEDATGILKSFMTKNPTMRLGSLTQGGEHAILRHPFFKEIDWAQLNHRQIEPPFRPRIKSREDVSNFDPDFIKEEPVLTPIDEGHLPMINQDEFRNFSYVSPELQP
Tyrosine-protein kinase ABL1, sequence (P00519 whole entry): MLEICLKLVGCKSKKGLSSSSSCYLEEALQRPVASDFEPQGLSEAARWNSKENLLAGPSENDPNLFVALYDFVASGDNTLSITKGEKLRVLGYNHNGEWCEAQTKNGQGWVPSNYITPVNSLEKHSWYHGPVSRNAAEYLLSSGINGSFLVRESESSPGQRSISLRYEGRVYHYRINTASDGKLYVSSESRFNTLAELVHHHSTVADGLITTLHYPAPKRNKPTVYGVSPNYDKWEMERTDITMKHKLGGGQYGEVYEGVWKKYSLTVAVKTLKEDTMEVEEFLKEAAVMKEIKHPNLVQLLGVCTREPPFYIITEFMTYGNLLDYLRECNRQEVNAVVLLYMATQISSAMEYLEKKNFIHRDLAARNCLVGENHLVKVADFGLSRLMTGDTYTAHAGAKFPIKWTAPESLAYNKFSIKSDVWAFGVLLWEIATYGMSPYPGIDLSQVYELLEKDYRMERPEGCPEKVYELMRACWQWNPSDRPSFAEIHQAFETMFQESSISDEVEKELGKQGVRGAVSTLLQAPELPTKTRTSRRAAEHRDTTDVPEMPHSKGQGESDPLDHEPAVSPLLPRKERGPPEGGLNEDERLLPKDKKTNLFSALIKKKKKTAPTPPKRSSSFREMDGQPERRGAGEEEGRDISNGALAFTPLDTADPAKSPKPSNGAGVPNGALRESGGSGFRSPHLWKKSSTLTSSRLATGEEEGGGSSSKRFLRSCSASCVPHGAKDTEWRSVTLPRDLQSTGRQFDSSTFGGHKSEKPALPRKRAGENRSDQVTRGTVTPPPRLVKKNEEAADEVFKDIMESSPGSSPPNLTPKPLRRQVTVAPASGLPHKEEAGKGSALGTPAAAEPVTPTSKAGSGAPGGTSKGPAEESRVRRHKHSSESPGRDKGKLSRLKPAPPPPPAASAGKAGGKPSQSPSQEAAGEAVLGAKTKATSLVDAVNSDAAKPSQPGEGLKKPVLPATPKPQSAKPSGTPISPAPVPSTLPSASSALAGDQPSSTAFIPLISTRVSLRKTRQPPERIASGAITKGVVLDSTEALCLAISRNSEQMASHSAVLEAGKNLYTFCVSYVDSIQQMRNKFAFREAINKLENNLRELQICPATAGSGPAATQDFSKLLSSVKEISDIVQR
Phosphatidylinositol 4,5-bisphosphate 3-kinase catalytic subunit alpha isoform, sequence (P42336 whole entry, canonical isoform): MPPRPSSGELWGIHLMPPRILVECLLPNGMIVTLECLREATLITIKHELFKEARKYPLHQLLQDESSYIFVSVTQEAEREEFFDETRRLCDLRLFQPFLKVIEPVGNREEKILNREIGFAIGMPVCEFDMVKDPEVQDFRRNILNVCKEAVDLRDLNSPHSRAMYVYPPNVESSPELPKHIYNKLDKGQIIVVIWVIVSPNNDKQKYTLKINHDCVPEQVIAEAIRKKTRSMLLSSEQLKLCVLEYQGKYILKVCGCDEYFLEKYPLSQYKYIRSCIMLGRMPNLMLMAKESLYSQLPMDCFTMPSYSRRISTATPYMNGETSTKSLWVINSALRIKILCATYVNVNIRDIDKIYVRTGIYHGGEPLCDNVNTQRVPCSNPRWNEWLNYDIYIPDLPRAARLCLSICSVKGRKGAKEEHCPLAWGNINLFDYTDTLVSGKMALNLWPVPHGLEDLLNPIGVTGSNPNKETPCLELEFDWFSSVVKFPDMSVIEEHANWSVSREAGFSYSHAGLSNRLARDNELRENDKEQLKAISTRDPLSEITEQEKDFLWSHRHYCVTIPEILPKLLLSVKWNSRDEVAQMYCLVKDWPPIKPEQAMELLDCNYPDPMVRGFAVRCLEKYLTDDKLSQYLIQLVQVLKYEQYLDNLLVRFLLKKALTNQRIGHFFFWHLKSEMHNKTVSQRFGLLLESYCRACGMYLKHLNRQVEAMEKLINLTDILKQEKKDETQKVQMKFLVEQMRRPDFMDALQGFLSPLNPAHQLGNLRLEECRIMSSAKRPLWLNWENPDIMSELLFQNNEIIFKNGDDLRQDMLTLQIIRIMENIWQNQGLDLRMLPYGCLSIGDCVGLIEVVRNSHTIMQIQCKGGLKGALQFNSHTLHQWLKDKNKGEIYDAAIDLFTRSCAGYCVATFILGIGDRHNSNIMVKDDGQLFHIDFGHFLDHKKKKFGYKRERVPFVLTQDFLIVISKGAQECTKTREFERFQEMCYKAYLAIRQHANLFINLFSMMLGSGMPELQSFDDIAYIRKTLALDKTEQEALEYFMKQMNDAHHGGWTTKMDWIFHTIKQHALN
Cytochrome P450 2C9, sequence (P11712 whole entry): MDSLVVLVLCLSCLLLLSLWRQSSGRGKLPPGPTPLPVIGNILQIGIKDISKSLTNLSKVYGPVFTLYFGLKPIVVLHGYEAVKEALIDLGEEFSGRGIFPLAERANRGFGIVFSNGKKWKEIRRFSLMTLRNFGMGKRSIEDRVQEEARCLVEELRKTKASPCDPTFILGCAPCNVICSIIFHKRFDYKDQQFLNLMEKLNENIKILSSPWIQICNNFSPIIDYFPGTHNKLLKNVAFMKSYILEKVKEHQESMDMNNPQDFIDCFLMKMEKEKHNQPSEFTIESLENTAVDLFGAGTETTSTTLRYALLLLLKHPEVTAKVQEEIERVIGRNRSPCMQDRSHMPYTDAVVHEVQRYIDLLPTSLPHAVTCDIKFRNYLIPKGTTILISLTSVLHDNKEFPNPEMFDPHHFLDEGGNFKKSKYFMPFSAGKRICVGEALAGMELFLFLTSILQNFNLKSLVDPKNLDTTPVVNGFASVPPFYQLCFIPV
Tyrosine-protein kinase JAK2, sequence (O60674 whole entry): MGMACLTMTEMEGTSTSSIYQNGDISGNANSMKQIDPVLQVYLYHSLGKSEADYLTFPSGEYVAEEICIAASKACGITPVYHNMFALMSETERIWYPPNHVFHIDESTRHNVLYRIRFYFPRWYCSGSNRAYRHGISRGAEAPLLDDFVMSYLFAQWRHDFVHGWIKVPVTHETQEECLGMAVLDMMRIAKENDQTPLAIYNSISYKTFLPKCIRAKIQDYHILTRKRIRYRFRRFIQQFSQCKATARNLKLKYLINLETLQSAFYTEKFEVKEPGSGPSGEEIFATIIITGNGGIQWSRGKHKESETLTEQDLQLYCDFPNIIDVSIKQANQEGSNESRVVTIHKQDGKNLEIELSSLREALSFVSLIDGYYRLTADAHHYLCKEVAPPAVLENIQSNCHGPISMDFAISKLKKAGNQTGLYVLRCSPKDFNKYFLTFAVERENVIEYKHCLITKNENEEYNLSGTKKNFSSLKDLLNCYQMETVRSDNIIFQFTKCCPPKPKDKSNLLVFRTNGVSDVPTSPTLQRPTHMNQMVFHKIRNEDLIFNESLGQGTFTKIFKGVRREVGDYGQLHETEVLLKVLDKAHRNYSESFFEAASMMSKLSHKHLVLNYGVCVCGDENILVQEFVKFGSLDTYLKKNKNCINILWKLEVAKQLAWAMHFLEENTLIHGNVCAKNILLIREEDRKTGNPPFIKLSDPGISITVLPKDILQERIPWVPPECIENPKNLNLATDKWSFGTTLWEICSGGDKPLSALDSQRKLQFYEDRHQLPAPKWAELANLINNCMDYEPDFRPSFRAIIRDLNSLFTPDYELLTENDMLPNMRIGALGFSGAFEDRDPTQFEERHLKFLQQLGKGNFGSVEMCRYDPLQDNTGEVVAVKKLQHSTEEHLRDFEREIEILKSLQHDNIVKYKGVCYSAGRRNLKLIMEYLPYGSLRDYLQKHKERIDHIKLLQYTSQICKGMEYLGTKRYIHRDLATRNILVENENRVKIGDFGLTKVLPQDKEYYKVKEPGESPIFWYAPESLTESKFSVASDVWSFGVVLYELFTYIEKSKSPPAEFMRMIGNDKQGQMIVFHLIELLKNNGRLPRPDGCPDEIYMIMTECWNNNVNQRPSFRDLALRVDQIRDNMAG
CYP2C19, sequence (P33261 whole entry): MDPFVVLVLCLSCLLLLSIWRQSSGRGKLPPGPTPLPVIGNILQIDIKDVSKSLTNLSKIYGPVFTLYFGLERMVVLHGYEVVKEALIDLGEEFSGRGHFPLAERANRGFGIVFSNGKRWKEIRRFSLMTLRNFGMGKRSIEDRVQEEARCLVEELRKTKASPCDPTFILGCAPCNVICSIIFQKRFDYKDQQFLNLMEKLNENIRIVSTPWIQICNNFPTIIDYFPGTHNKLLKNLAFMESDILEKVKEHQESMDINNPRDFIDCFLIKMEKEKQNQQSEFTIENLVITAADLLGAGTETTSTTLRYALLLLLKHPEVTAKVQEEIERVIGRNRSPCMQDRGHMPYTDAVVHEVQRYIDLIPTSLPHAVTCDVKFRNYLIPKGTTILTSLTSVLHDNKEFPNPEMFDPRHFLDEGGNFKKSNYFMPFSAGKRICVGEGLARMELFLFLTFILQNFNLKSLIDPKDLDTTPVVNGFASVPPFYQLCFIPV

Compound: Cl.Cn1nccc1-c1ccc(C(=O)N[C@@H]2CNCC[C@H]2c2ccc(F)c(F)c2)c(F)c1
- inhibition at 100 µM [1]: 65%
- Activity [2]: Toxic
- IC50 [3]: 16.1 µM
- inhibition [4]: Active
- Activity [5]: Non-Toxic
- Drug metabolism [6]: Metabolite_Detected
- IC50 [7]: 6.56 µM
- IC50 [8]: > 10 µM
- IC50 [9]: > 10 µM
- IC50 [10]: > 2 µM
- inhibition [11]: Active
- Activity [12]: Non-Toxic
- IC50 [13]: 6.53 µM
- half-life at 50 µM [14]: 16.2 h
- Activity [15]: Dose-Dependent Effect
- IC50 [16]: > 10 µM
- IC50 [17]: 7.47 µM
- inhibition at 3 µM [18]: 15.9%
- IC50 [19]: > 10 µM
- half-life at 50 µM [20]: 6.73 h
- microsomal CLint at 50 µM [21]: 20 µL/min/mg
- Activity [22]: Toxic
- IC50 [23]: 26.6 µM
- Tmax [24]: 6.6 min
- Activity [25]: Non-Toxic
- IC50 [26]: 0.004 µM
- Drug metabolism [27]: Metabolite_Detected
- half-life at 50 µM [28]: 1.16 h
- IC50 [29]: > 100 µM
- Activity [30]: Non-Toxic
- half-life at 50 µM [31]: 1.7 h
- half-life [32]: 16.7 h
- half-life [33]: 8.68 h
- IC50 [34]: > 10 µM
- Drug metabolism [35]: Metabolite_Detected
- Drug metabolism [36]: Metabolite_Detected
- Tmax [37]: 8.67 h
- Activity [38]: Non-Toxic
